Series [1] concerns human retinal pigmented epithelial cells (ARPE-19). The series is described as follows: CCK-8 cell growth analysis in retinal pigmented epithelial cells. The class given is cell-based. To be noted: young vs senescent retinal pigmented epithelial cells; concentration-dependent. The method, then: (§1) Each cell was treated in a serum-free culture solution containing 0.5 μM doxorubicin for 4 hours. After washing the cells with a serum-free culture solution, the cells were cultured for 4 days in a culture solution containing 10% FBS, and then cellular aging was confirmed by staining with senescence-associated beta galactosidase (SAβG). After each sample was dissolved in DMSO, young cells, replicative senescent cells, and premature senescent cells treated with doxorubicin were treated with 100 nM zotarolimus, 100 nM rapamycin, 100 nM ABT263, respectively. After incubation for 4 days in a 37° C., 5% CO2 incubator, the degree of cell growth was confirmed by CCK-8 analysis, the degree of cellular aging was confirmed by senescence-related beta-galactosidase (SAβG) staining, Young cells (1×10^3 cells/well) or senescent cells (2×10^3 cells/well) were dispensed into a 96-well plate, and cultured overnight in a 37° C., 5% CO2 incubator. Zotarolimus, ABT263 and rapamycin were treated at each concentration, and then incubated for 4 days in a 37° C., 5% CO2 incubator. […] Then, the absorbance was measured at 450 nm using a microplate reader. The degree of cell growth was expressed as a relative value for the absorbance of the control group treated with only DMSO as 100%. […]

In series [2] the test system is human tubular epithelial cell (HK2). The series is described as follows: CCK-8 cell growth analysis in premature senescent HK2 cells. To be noted: premature senescent HK2 cells by doxorubicin; 100 nM, 4 days; vs DMSO-treated group. It is filed as cell-based. The method, then: as §1
For series [3], the system named is pulmonary fibrosis induced by bleomycin. In words: Lung fibrosis induced by bleomycin in mice. It is filed as in vivo, C57BL/6J mice. How it is done: Animal experiments were conducted with the approval of the Animal Experimental Ethics Committee, Yeungnam University College of Medicine (YUMC-AEC2018-025). After anesthetizing by injecting 2.5% avertin (Avertin; 0.025 ml/g) into the abdominal cavity of 10-week-old C57BL/6J male mice, 2 mU/g of bleomycin was instilled into the bronchi and injected into the lungs.
From 5 days after bleomycin administration, 2.5 μl of 10 mM zotarolimus was diluted in 100 μl phosphate buffer solution at intervals of 3 days and injected intraperitoneally 6 times (Zota group).
Three mice were used for each group, and lungs were excised by sacrifice 22 days after bleomycin injection and fixed in 10% formalin solution or stored frozen in liquid nitrogen.
The tissue fixed in 10% formalin solution was embedded with paraffin and cut into 4 μm to prepare a tissue sample. After removing paraffin from the tissue sample, hematoxylin-eosin staining, trichrome staining, and PAS staining were performed.
The degree of fibrosis was measured by analyzing the degree of collagen staining using the i-Solution™ software program (IMT Inc., Canada) after trichrome staining and the degree of cell senescence in tissue samples was investigated by staining lipofuscin with Sudan black B (Viegas M S, et al., European journal of histochemistry: EJH. 2007). The degree of peritoneal fibrosis was confirmed by measuring the submesothelial thickness of the peritoneal mesothelial cell layer using the NIH Image J program.

Series [4] deals with human tubular epithelial cell (HK2). In words: SAβG activity staining in premature senescent HK2 cells. The class given is cell-based. The following applies: premature senescent HK2 cells by doxorubicin; 100 nM, 4 days. The method, then:
Each cell was treated in a serum-free culture solution containing 0.5 μM doxorubicin for 4 hours. After washing the cells with a serum-free culture solution, the cells were cultured for 4 days in a culture solution containing 10% FBS, and then cellular aging was confirmed by staining with senescence-associated beta galactosidase (SAβG). After each sample was dissolved in DMSO, young cells, replicative senescent cells, and premature senescent cells treated with doxorubicin were treated with 100 nM zotarolimus, 100 nM rapamycin, 100 nM ABT263, respectively. After incubation for 4 days in a 37° C., 5% CO2 incubator, the degree of cell growth was confirmed by CCK-8 analysis, the degree of cellular aging was confirmed by senescence-related beta-galactosidase (SAβG) staining, The cells were washed with 1× phosphate buffer solution, and fixed with a phosphate buffer solution containing 3.7% (v/v) paraformaldehyde. After adding 1 mg/ml 5-bromo-4-chloro-3-indolyl-6-D-galactoside, 40 mM citric acid-sodium phosphate (pH 6.0), 5 mM potassium ferricyanide, 5 mM potassium ferrocyanide, 150 mM NaCl, and 2 mM MgCl2 solution, it was reacted at 37° C. for 18 hours. It was stained with eosin as a control stain. Cells stained blue in the cytoplasm were identified using an optical microscope. […]

The mark [5] stands for this setting: i.p. 6 times at 3-day intervals from day 5, vs PBS group.

The values below come from patent publication US20220023271A1, “COMPOSITION FOR PREVENTING OR TREATING CELLULAR SENESCENCE-RELATED DISEASES COMPRISING ZOTAROLIMUS AS ACTIVE INGREDIENT” (RESEARCH COOPERATION FOUNDATION OF YEUNGNAM UNIVERSITY, priority 2018, published 2022).

Regarding `CO[C@H]1C[C@@H]2CC[C@@H](C)[C@@](O)(O2)C(=O)C(=O)N2CCCC[C@H]2C(=O)O[C@H]([C@H](C)C[C@@H]2CC[C@H](n3cnnn3)[C@H](OC)C2)CC(=O)[C@H](C)/C=C(\C)[C@@H](O)[C@@H](OC)C(=O)[C@H](C)C[C@H](C)/C=C/C=C/C=C/1C` [zotarolimus], in series [1], the “cell growth with increasing concentrations of zotarolimus” value is “significantly decreased in senescent cells compared to young cells”. For the same compound, in series [2], the “cell growth (CCK-8)” value is on record as “no difference in the growth”. In addition, the weight gain entry in series [3] (before induction vs 20th day, vs NT group) is listed as “significantly decreased”. For the same compound, in series [3] (setting [5]), the “degree of lung fibrosis (trichrome staining)” value is listed as “statistically significantly reduced” and the “degree of lung tissue damage (hematoxylin-eosin staining)” value is on record as “statistically significantly reduced”. The weight result in series [3] (vs PBS group) is reported as “further increased compared to that of the PBS group”. In series [4], the SAβG staining result is “decreased”.
